The values below are quoted from earlier work in patent US20220143126A1, “SYNERGISTIC COMBINATION OF PHYTOACTIVES” (priority 2019, published 2022).

For the data set the following is noted: rats, concomitant administration of curcumin with piperine.

Turning to `COc1cc(/C=C/C(=O)CC(=O)/C=C/c2ccc(O)c(OC)c2)ccc1O` [curcumin], the increase in bioavailability is 150%.
